Patent EP0345100A1, “Preparation of PAF receptors and method of quantity determination of PAF” (INSTITUT PASTEUR, priority 1988, dated 1989)

Target: T1, récepteur du PAF (Oryctolagus cuniculus, UniProt G1TEI7)
T1 construct: préparation membranaire de plaquettes de lapin; from tissue; host or cells: rabbit blood platelets, lysed by freeze/thaw, membrane pellet
Assay: Competitive binding of [³H]PAF to rabbit platelet membrane preparations (radioreceptor assay, vacuum filtration)
Design: species or system lapin
Protocol: - 1 Aliquot de préparation membranaire de plaquettes de lapin (A) - 1 Aliquot de préparation de récepteur du PAF conforme à l'invention (B), - PAF marqué au Tritium, activité spécifique 56 Ci/mmole (DU PONT DE NEMOURS (Boston MA, USA).) - PAF non marqué (BACHEM, Budendorf, Suisse).
Des aliquots de préparations membranaires de plaquettes de lapin (∼100 µg) sont incubés pour un volume final de 200 µl de solution contenant 1 nM de /³H/PAF (15300 cpm) et soit une quantité de PAF non marqué connue (gamme de référence), soit un aliquot de dilution de l'extrait à doser. […]
Les filtres sont placés dans des fioles de comptage avec 4 ml de liquide scintillant (Atomlight NEN). La radioactivité est quantifiée sur compteur à scintillation LKB Rack beta 1214.
La différence entre la quantité de [³H]PAF lié aux membranes en absence et en présence d'un excès de PAF non marqué (1000 x [³H] PAF) est considérée comme liaison spé-cifique maximale (B˙). […]
4.2. […] Le pourcentage de [³H ]PAF lié spécifiquement aux préparations en présence de ces différentes concentrations est déterminé par rapport à la quantité de [³H ]PAF lié spécifiquement en absence de PAF standard non marqué (B/Bo : B : cpm de [³H ]PAF lié aux membranes en pré-sence de PAF standard (liaison non spécifique déduite). Bo : cpm de [³H ]PAF lié aux membranes en absence de PAF standard (liaison non spécifique déduite). […]

T1 sequence (G1TEI7 1-342): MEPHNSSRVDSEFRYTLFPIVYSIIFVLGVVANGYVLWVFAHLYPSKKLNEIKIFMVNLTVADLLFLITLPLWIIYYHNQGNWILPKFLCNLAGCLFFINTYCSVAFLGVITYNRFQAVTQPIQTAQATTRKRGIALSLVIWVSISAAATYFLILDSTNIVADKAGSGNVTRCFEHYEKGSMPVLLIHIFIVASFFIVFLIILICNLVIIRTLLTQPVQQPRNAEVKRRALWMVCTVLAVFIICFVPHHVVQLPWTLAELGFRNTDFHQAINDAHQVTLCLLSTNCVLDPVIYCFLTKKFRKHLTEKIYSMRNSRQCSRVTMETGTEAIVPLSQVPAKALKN

## 1-0-alkyl-2-acétyl-sn-glycérol-3-phosphorylcholine [PAF standard]
1 nM [³H]PAF, + 4° C, 1 heure 30, four experiments taken at random
  ED₅₀ (dose de PAF standard nécessaire pour inhiber 50 % de la liaison spécifique): 0,63 + 0,15 ng/tube

## CCCCCCCCCCCCCCCCOC[C@@H](O)COP(=O)([O-])OCC[N+](C)(C)C [lyso-PAF]
Dose maximale testée : 10⁻⁶M, Figure 2 (B/Bo)
  reconnaissance par le site de liaison utilisé pour le dosage: ne sont pas reconnus
